“And” between values parts separate entries of the source, which are not always exact repeats. Equal entries are not always repeated.
Test system: K98450-129-R-PDC multicell spheroids, viability
Experiment: Anticancer human tumor K98450-129-R-PDC patient-derived colon adenocarcinoma cell line growth inhibition [PI3K]
Conditions: for viability, T/C: stronger effect = lower value
Description: Combinatorial screen of targeted agents with the PI3K inhibitors inavolisib, alpelisib, duvelisib, and copanlisib in multi-cell type tumor spheroids
A high-throughput screen of multi-cell type tumor spheroids was designed to identify active combinations of targeted small molecules and PI3K pathway inhibitors. Complex spheroids include a stromal component modeled by human endothelial cells (HUVEC) and fibroblasts modeled by human mesenchymal stem cells (MSCs). The concentration ranges selected for each drug and investigational agent were based upon clinically achievable concentrations if the clinical Cmax of the agent was known.
Compounds. The drugs and investigational agents: inavolisib (NSC800729), alpelisib (NSC765974), duvelisib (NSC772469), copanlisib (NSC816437), ipatasertib (NSC767898), afuresertib (NSC778305), talazoparib (NSC767125), sapanisertib (NSC764658), selumetinib (NSC741078), tovorafenib (DAY101, NSC766906), vemurafenib (NSC761431), ravoxertinib (NSC781343), sotorasib (NSC818433), MRTX1133 (NSC 836407), abemaciclib (NSC 768073), palbociclib (NSC758247), venetoclax (NSC 766270), SY5609 (NSC837396), enzalutamide (NSC755605), and darolutamide (NSC825331), were obtained from the National Cancer Institute (NCI) Developmental Therapeutics Program Chemical Repository. The FDA-approved anticancer drug set is available from the NCI Developmental Therapeutics Program. […] The stock solutions were prepared in dimethyl sulfoxide (DMSO, Sigma-Aldrich, St. Louis, MO, cat. D2650) at 800-fold the tested concentration and stored at -70 degrees C prior to their use. All drugs and investigational agents were tested over a range starting from a high concentration at or near the clinical Cmax and decreasing in half-log increments. If the clinical Cmax for an agent had not been determined, the highest concentration tested was 10 microM.
Cell Culture. All cells were maintained in an incubator at 37 degrees C and 5% CO2 with 95% humidity. The PDC lines were cultured according to standard operating procedures established by the NCI PDMR (https://pdmr.cancer.gov/sops/default.htm). All PDCs were thawed and cultured in Matrigel-coated flasks prepared with a working solution of 1X Ham's F-12 nutrient mix, without supplementation (Invitrogen, Waltham, MA, cat. 11765054), 100 U/mL penicillin-streptomycin (Invitrogen, cat. 15140122), and 2.5% Matrigel (Corning Inc., Corning, NY, cat. 354248) for the first three passages. The 354836-022-R-J1-PDC, 475296-252-R-J1-PDC, and 997726-040-R-J2-PDC lines were cultured in 6A media, which includes advanced DMEM/F-12 (Thermo Fisher Scientific, cat. 12634028), 10 mM HEPES (Thermo Fisher Scientific, cat. 15630080), 1X GlutaMAX supplement (Thermo Fisher Scientific, cat. 35050061), 0.1 mg/mL primocin (InvivoGen, San Diego, CA, cat. ant-pm-2), 10% defined fetal bovine serum, heat inactivated (HyClone Laboratories Inc., Logan, UT, cat. SH30070.03HI), 50% L-WRN conditioned media (ATCC, cat. CRL-3276), 1.25 mM N-Acetyl-L-cysteine (Sigma-Aldrich, cat. A9165), 10 mM nicotinamide (Sigma-Aldrich, cat. N0636), 1X B-27 supplement (Thermo Fisher Scientific, cat. 17504044), 1X N-2 supplement (Thermo Fisher Scientific, cat. 17502048), and 10 microM Y-27632 dihydrochloride (Tocris Bioscience, Bristol, United Kingdom, cat. 1254). The 624824-186-R-J2-PDC line was cultured in 6C/Colon 1B media, which includes all 6A media components plus 50 ng/mL human EGF recombinant protein (Thermo Fisher Scientific, cat. PHG0311). […]
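Further: spheroids exposed to agents for seven days before read-out.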

C#Cc1c(F)ccc2cc(O)cc(-c3ncc4c(N5CC6CCC(C5)N6)nc(OCC56CCCN5CC(F)C6)nc4c3F)c12 (stereo not given)
viability, T/C (compound 0.0316 µM): 109% [middle of 4 runs] | viability, T/C (compound 0.1 µM): 106% [middle of 4 runs] | viability, T/C (compound 0.316 µM): 104% (2×) and 101% and 102% | viability, T/C (compound 1 µM): 105% [middle of 4 runs] | viability, T/C (compound 3.16 µM): 99.8% and 91.5% (2×) and 108% | viability, T/C (compound 10 µM): 89.9% [middle of 4 runs] | IC50 (curve of compound): > 10 µM

Cn1ncc(Cl)c1-c1cc(C(=O)NC(CN)Cc2cccc(F)c2)sc1Cl (stereo not given)
viability, T/C (compound 0.0316 µM): 108% [middle of 4 runs] | viability, T/C (compound 0.1 µM): 98.9% and 101% (2×) and 95.5% | viability, T/C (compound 0.316 µM): 107% [middle of 4 runs] | viability, T/C (compound 1 µM): 98.2% [middle of 4 runs] | viability, T/C (compound 3.16 µM): 92.7% [middle of 4 runs] | IC50 (curve of compound): > 10 µM

CNC(=O)c1ccc(N2C(=S)N(c3ccc(C#N)c(C(F)(F)F)c3)C(=O)C2(C)C)cc1F + CC(Nc1ccc2c(c1)OCCn1cc(N3C(=O)OCC3C(F)F)nc1-2)C(N)=O
IC50 (curve of first compound, second compound 0.00316 µM): > 10 µM | IC50 (curve of first compound, second compound 0.01 µM): > 10 µM | IC50 (curve of first compound, second compound 0.0316 µM): > 10 µM | IC50 (curve of first compound, second compound 0.1 µM): > 10 µM | IC50 (curve of first compound, second compound 0.316 µM): > 10 µM | IC50 (curve of first compound, second compound 1 µM): > 10 µM | viability, T/C (second compound 0.00316 µM, first compound 0.0316 µM): 108% | viability, T/C (second compound 0.00316 µM, first compound 0.1 µM): 102% | viability, T/C (second compound 0.00316 µM, first compound 0.316 µM): 107% | viability, T/C (second compound 0.00316 µM, first compound 1 µM): 107% | viability, T/C (second compound 0.00316 µM, first compound 3.16 µM): 110% | viability, T/C (second compound 0.00316 µM, first compound 10 µM): 120% | viability, T/C (second compound 0.01 µM, first compound 0.0316 µM): 115% | viability, T/C (second compound 0.01 µM, first compound 0.1 µM): 100% | viability, T/C (second compound 0.01 µM, first compound 0.316 µM): 107% | viability, T/C (second compound 0.01 µM, first compound 1 µM): 101% | viability, T/C (second compound 0.01 µM, first compound 3.16 µM): 108% | viability, T/C (second compound 0.01 µM, first compound 10 µM): 117% | viability, T/C (second compound 0.0316 µM, first compound 0.0316 µM): 106% | viability, T/C (second compound 0.0316 µM, first compound 0.1 µM): 101% | viability, T/C (second compound 0.0316 µM, first compound 0.316 µM): 94.5% | viability, T/C (second compound 0.0316 µM, first compound 1 µM): 103% | viability, T/C (second compound 0.0316 µM, first compound 3.16 µM): 112% | viability, T/C (second compound 0.0316 µM, first compound 10 µM): 112% | viability, T/C (second compound 0.1 µM, first compound 0.0316 µM): 94.1% | viability, T/C (second compound 0.1 µM, first compound 0.1 µM): 93.9% | viability, T/C (second compound 0.1 µM, first compound 0.316 µM): 103% | viability, T/C (second compound 0.1 µM, first compound 1 µM): 98.2% | viability, T/C (second compound 0.1 µM, first compound 3.16 µM): 105% | viability, T/C (second compound 0.1 µM, first compound 10 µM): 110% | viability, T/C (second compound 0.316 µM, first compound 0.0316 µM): 94.7% | viability, T/C (second compound 0.316 µM, first compound 0.1 µM): 96.8% | viability, T/C (second compound 0.316 µM, first compound 0.316 µM): 99.6% | viability, T/C (second compound 0.316 µM, first compound 1 µM): 96.8% | viability, T/C (second compound 0.316 µM, first compound 3.16 µM): 102% | viability, T/C (second compound 0.316 µM, first compound 10 µM): 102% | viability, T/C (second compound 1 µM, first compound 0.0316 µM): 83.9% | viability, T/C (second compound 1 µM, first compound 0.1 µM): 100% | viability, T/C (second compound 1 µM, first compound 0.316 µM): 94.9% | viability, T/C (second compound 1 µM, first compound 1 µM): 92.1% | viability, T/C (second compound 1 µM, first compound 3.16 µM): 98.6% | viability, T/C (second compound 1 µM, first compound 10 µM): 106%
